Test results: patent US4017534A, “16-Fluoro-11-deoxy-13-dihydro-prostaglandin” (American Cyanamid Company, priority 1975, dated 1977)
Like-named read-outs stand apart in the source and are kept apart here.

Legend:
gastric acid secretion = assay: Gastric acid secretion inhibition, Shay-rat procedure; assay type: in vivo, rats (male, CFE strain); settings: intraduodenal dose 100 mg./kg. of body weight
Method: Gastric acid secretion inhibition can also be observed in an assay wherein acid secretion is stimulated as in the well-known "Shay-rat" procedure, which is carried out in the following manner.
The rats (male, CFE strain) were starved for 48 hours (water was given ad libitum) to permit evacuation of stomach contents. On the morning of the experiment, under ether anesthesia, the abdominal region was shaved and a midline incision (1-11/2 inch) was made with a scapel. With the help of a closed curved hemostat the duodenum was picked up. […]
The abdominal cavity was exposed by cutting with scissors and the esophagus close to the stomach was clamped off with a hemostat, the stomach was removed by cutting above the hemostat (the esophagus was cut) and between the two sutures. […] The supernatant was collected, volume measured and recorded, 2 drops of a phenolphthalein indicator (1% in 95% ethanol) were added and the solution was tritrated with 0.02N NaOH (or with 0.04N NaOH when large volumes of stomach contents were encountered) to pH 8.4 (because of usual coloring of the stomach contents, phenolphthalein was only used to permit visual indication that the end point was near) and the amount of acid present was calculated. […]

[1] = tested on: bronchospasms elicited by histamine; assay: Bronchodilator activity (intraduodenal route) against histamine; assay type: in vivo, guinea pigs; design: key: 0: no activity; +: minimal activity; ++++: maximum activity; settings: intraduodenal dose 10 mg./kg.
Method: (§1) The compounds of this invention are useful as bronchodilators for the treatment of asthma and chronic bronchitis. Bronchodilator activity is determined in guinea pigs against bronchospasms elicited by intravenous injections of 5-hydroxytryptamine, histamine or acetylcholine by the Konzett procedure. [See J. Lulling, P. Lievens, F. El Sayed and J. Prignot, Arzneimittel-Forschung, 18, 995 (1968).]
(§2) In Table A' which follows bronchodilator activity for representative compounds of this invention against one or more of three spasmogenic agents is reported. In this assay candidate compounds are suspended in 10% gum arabic solution and the suspension is administered by the intraduodenal route. The activity of the compound at any one dose is then investigated throughout the following hour (see above-cited reference, J. Lulling et al.). Potency is then reported as O, +, ++, +++, or ++++, wherein 0 represents no activity, + minimal activity and ++++ maximum activity.

[2] = tested on: basal gastric acid secretion; assay: Inhibition of total acid output in the acute gastric fistula rat; assay type: in vivo, Female Sprague-Dawley rats; settings: for ED50: Rattus norvegicus
Method: The compounds of this invention are also useful as inhibitors of gastric acid secretion and peptic ulcer formation and may be used for the treatment of gastric hyperacidity, gastric erosion, and peptic ulcer. Inhibition of basal gastric acid secretion can be determined by the following procedure.
Female Sprague-Dawley rats weighting 140-160 grams are fasted in individual cages for 18-24 hours. The rats are then lightly anesthetized with ether and their front teeth extracted to avoid destruction of the plastic cannula. A midline incision is then made and the stomach and duodenum exposed. A flanged polyvinyl tube is inserted into the fundic portion of the stomach and secured with a purse string suture line using 4-O Mersilene. The rat is then dosed by injection of the compound into the duodenum (1.0 ml. per 100 gram body weight). After dosing, the abdominal wall and skin are closed using metal wound clips. The rate is replaced in a cage containing a longitudinal slit to allow the polyvinyl tube to hang freely. An 8 ml. plastic collecting tube is attached to the flanged cannula and hangs freely below the cage. The first 30 minute sample is discarded designating this time as zero. The collecting tube is attached again and samples removed at the end of 60 and 120 minutes. These samples are referred to as "A" and "B" in the table. The hourly samples are then transferred to a 15 ml. centrifuge and centrifuged for 5-10 minutes. Total and sediment volume are then recorded with the supernatent volume being used as volume of secretion. A 1 ml. or less aliquot is then removed and placed in a 50 ml. beaker containing 10 ml. of distilled water. This sample is then titrated using 0.01N NaOH to pH 7.0 using a Beckman zeromatic pH meter. Volume, titratable acidity (meg.L) and total acid output (μeg/hour) are recorded. Percent inhibition is determined by comparison with the appropriate control. Groups of three rats were used for preliminary testing, and groups of six rats were used for dose-response evaluations. All compounds are administered in a vehicle consisting of 0.5% methocel, 0.4% tween 80, and saline at a constant volume of 1 ml./100 gram rat. Samples are dispersed by sonification. Percent inhibition is calculated on basis of concurrent vehicle control.
In Table B which follows is given the effect on total acid output after 120 minutes of a 10 mg./kg. dose of representative ketals of this invention. For comparison the result obtained with the corresponding 9-oxo derivative, l 9-oxo-15(S)-hydroxyprostanoic acid is included.
Dose response evaluation in the acute gastric fistual rat assay further illustrates the pronounced advantage of the novel ketals of this invention as gastric acid secretion inhibitors relative to the corresponding 9-oxo derivative.

[3] = tested on: bronchospasms elicited by 5-hydroxytryptamine; assay: Bronchodilator activity (intraduodenal route) against 5-hydroxytryptamine; assay type: in vivo, guinea pigs; design: key: 0: no activity; +: minimal activity; ++++: maximum activity
Method: as §1, §2

[4] = tested on: bronchoconstriction induced by administration of pilocarpine; assay: Bronchodilator activity by aerosol in dogs; assay type: in vivo; settings: for bronchodilator activity by aerosol: aerosol concentration 0.032%
Method: (§3) The novel ketals of this invention also show bronchodilator activity when administered by aerosol to dogs wherein bronchoconstriction was induced by administration of pilocarpine. […] This is very important since coughing is one of the damaging side effects reported in the literature when prostaglandin aerosols are administered to human subjects. [See Y. Kawakami et al., European Journal Clinical Pharmacology, 6, 127 (1973); M. F. Cuthbert, Brit. Med. Journ. 723 (Dec. 20, 1969); H. Herxheimer and I. Roetscher, European Journal Clinical Pharmacology, 3, 123 (1971).]

cough = assay: Cough induction by aerosol in human; assay type: in vivo
Method: as §3

[5] = tested on: bronchospasms elicited by intravenous injections of histamine; assay: Bronchodilator activity (Konzett assay, intravenous) against histamine; assay type: in vivo, guinea pigs; settings: Cavia porcellus, guinea pig, spasmogen histamine, read-out: Bronchodilator Activity (Konzett Assays) ED50, histamine
Method: as §1
(§4) In Table A which follows bronchodilator activity for representative compounds of this invention against one or more of three spasmogenic agents is expressed as an ED50 determined from the results obtained with three logarithmic cumulative intravenous doses.

[6] = tested on: bronchospasms elicited by intravenous injections of acetylcholine; assay: Bronchodilator activity (Konzett assay, intravenous) against acetylcholine; assay type: in vivo, guinea pigs; settings: Cavia porcellus, guinea pig, spasmogen acetylcholine, read-out: Bronchodilator Activity (Konzett Assays) ED50, acetylcholine
Method: as §1, §4

[7] = tested on: bronchospasms elicited by intravenous injections of 5-hydroxytryptamine; assay: Bronchodilator activity (Konzett assay, intravenous) against 5-hydroxytryptamine; assay type: in vivo, guinea pigs; settings: Cavia porcellus, guinea pig, spasmogen 5-hydroxytryptamine, read-out: Bronchodilator Activity (Konzett Assays) ED50, 5-hydroxytryptamine
Method: as §1, §4

[8] = 2 h, 10 mg./kg., intraduodenal route, rat, read-out: %-Inhibition of Total Acid Output After 120 Minutes
[9] = Table C, intraduodenal route, 1 hr. collection, read-out: ED50, 1 hr. collection (A)
[10] = Table C, intraduodenal route, 2 hr. collection, read-out: ED50, 2 hr. collection (B)

Molecule	Bronchodilator potency, Spasmogenic Agent Histamine [1]	inhibition in vivo at 10 mg/kg [2, 8]	ED50 [2, 9]	ED50 [2, 10]	further results
CCCCCC(O)CCC1CCC2(OCCO2)C1CCCCCCC(=O)O (racemic) [9,9-(ethylenedioxy)-15-hydroxy-prostanoic acid]					Percent Inhibition (gastric acid secretion, Shay rat) (gastric acid secretion): 56%
CCCCC[C@H](O)CC[C@H]1CCC2(OCC(C)(C)CO2)[C@@H]1CCCCCCC(=O)O [9,9-(2,2-dimethylpropylenedioxy)-15(S)-hydroxy-prostanoic acid]	+	32%			Bronchodilator potency, Spasmogenic Agent 5-Hydroxytryptamine ([3]; intraduodenal dose 10 mg./kg.): +
CCCCC[C@H](O)CC[C@H]1CCC(=O)[C@@H]1CCCCCCC(=O)O [l 9-oxo-15(S)-hydroxyprostanoic acid, 1-15(S)-hydroxy-9-oxo-prostanoic acid, reference compound]			18 mg/kg	> 25 mg/kg	bronchodilator activity by aerosol [4]: very weak; inhibition in vivo at 12.5 mg/kg ([2]; 2 h, 12.5 mg./kg. dose, intraduodenal route, rat, read-out: %-Inhibition of Total Acid Output After 120 Minutes): 27%; potency relative to the ketals ([2]; total acid output, Table B): significantly less potent than the ketals; induction of cough by aerosol (cough): ketone aerosol does
CCCCC[C@@H](CC[C@H]1CCC2(OC(C)C(C)O2)[C@@H]1CCCCCCC(=O)OC)OC(C)=O (stereo partly drawn) [l methyl 9,9-(1,2-dimethylethylenedioxy)-15(S)-acetoxyprostanoate]		74%	7 mg/kg	7 mg/kg	
CCCCC[C@@H](CC[C@H]1CCC2(OCCCO2)[C@@H]1CCCCCCC(=O)OC)OC(C)=O [l methyl 9,9-(1,3-propylenedioxy)-15(S)-acetoxy-prostanoate]	+	60%	6 mg/kg	6 mg/kg	
CCCCC[C@@H](CC[C@H]1CCC2(OCC(C)O2)[C@@H]1CCCCCCC(=O)OC)OC(C)=O (stereo partly drawn) [l methyl 9,9-(1-methylethylenedioxy)-15(S)-acetoxyprostanoate]					Bronchodilator potency, Spasmogenic Agent 5-Hydroxytryptamine ([3]; intraduodenal dose 10 mg./kg.): +
CCCCC[C@@H](CC[C@H]1CCC2(OCCO2)[C@@H]1CCCCCCC(=O)OC)OC(C)=O [l methyl 9,9-ethylenedioxy-15(S)-acetoxy-prostanoate]		100%		3 mg/kg	ED50 ([2]; 2 h, Table B, intraduodenal route, after 120 minutes, read-out: ED50 (inhibition of total acid output)): 3 mg/kg
CCCCC[C@@H](CC[C@H]1CCC2(SCCS2)[C@@H]1CCCCCCC(=O)OC)OC(C)=O [l methyl 9,9-ethylenedithia-15(S)-acetoxy-prostanoate]		32%			
CCCCC[C@@H](CC[C@H]1CCC2(OCC(CCl)O2)[C@@H]1CCCCCCC(=O)OC)OC(C)=O (stereo partly drawn) [l methyl-9,9-(1-chloromethylethylenedioxy)-15(S)-acetoxy-prostanoate]	+	26%			
CCCCC[C@H](O)CC[C@H]1CCC2(OC(C)C(C)O2)[C@@H]1CCCCCCC(=O)O (stereo partly drawn) [l-9,9-(1,2-dimethylethylenedioxy)-15(S)-hydroxy-prostanoic acid]	+	57%	< 8 mg/kg	8 mg/kg	
CCCCC[C@H](O)CC[C@H]1CCC2(OCC(CCl)O2)[C@@H]1CCCCCCC(=O)O (stereo partly drawn) [l-9,9-(1-chloromethylethylenedioxy)-15(S)-hydroxy-prostanoic acid]		99%	6 mg/kg	6 mg/kg	Bronchodilator potency, Spasmogenic Agent 5-Hydroxytryptamine ([3]; intraduodenal dose 3.2 mg./kg.): ++++
CCCCC[C@H](O)CC[C@H]1CCC2(OCCO2)[C@@H]1CCCCCCC(=O)O [l-9,9-(ethylenedioxy)-15(S)-hydroxy-prostanoic acid]		63%	1 mg/kg	2.3 mg/kg	bronchodilator activity by aerosol [4]: fully-present; potency of the ketal relative to the ketone ([4]; aerosol, versus l 9-oxo-15(S)-hydroxyprostanoic acid): at least 10 times; induction of cough by aerosol (cough): does not induce cough; ED50 [5]: 0.000376 mg/kg; ED50 [6]: 0.0274 mg/kg; ED50 [7]: 0.00253 mg/kg
CCCCC[C@H](O)CC[C@H]1CCC2(OCCS2)[C@@H]1CCCCCCC(=O)O (stereo partly drawn) [l-9,9-(ethyleneoxythia)-15(S)-hydroxy-prostanoic acid]	+	39%			
CCCCC[C@H](O)CC[C@H]1CCC2(OCC(C)O2)[C@@H]1CCCCCCC(=O)O (stereo partly drawn) [l-15(S)-hydroxy-9,9-(1-methylethylenedioxy)-prostanoic acid]		61%			ED50 [6]: 0.000644 mg/kg; ED50 [7]: 0.000104 mg/kg
l methyl 9,9-(2,2-dimethyl-1,3-propylenedioxy)-15(S)-acetoxy-prostenoate					%-Inhibition of Total Acid Output After 120 Minutes ([2]; 10 mg./kg., intraduodenal route, rat): 27%
